target: T1, BTK (Homo sapiens, UniProt Q06187); test: BTK degradation assay using the HiBiT Method (Nano-Glo HiBiT Lytic Assay, GM01501.3 cells); type: cell-based; conditions: HiBiT Degradation on GM01501.3 BTK @ 6 hours
T1 construct: The GM01501.3 cell line endogenously expresses BTK with a HiBiT fusion tag via CRISPR knock-in at its C-terminal region; endogenous in cells; host or cells: GM01501.3 (GM01501 cells engineered by CRISPR knock-in of HiBiT at the BTK locus)
How it was run: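 CRISPR knock-in GM01501.3 cells expressing endogenous BTK with C-terminal HiBiT tag, treated 6 h at 37 °C with compounds, 11-point half-log titration from 10 μM top, duplicates. Remaining BTK quantified by Nano-Glo HiBiT lytic luminescence versus DMSO controls; DC50 reported.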

T1 sequence (Q06187 whole entry, the tested form may be a part): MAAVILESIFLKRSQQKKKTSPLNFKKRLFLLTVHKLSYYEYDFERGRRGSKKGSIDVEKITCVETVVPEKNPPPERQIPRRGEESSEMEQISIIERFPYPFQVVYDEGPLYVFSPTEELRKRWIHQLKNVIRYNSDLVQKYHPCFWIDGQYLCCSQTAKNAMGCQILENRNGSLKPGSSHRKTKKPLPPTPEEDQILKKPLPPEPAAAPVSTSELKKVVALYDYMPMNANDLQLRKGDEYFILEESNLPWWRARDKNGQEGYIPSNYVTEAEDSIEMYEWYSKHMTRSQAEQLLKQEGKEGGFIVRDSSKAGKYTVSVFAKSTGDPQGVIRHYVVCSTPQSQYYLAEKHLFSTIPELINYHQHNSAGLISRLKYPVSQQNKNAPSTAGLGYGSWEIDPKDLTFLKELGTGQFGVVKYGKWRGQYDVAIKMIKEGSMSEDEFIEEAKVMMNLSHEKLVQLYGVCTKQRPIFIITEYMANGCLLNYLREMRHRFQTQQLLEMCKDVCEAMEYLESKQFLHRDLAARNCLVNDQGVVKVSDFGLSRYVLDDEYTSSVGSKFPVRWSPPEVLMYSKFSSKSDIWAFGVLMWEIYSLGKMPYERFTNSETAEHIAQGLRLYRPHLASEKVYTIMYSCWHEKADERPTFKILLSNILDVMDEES

DC50, < 100 nM:
Cc1cc(-c2ncnn3cc(-c4ccc(CN5CCC(c6ccc(NC7CCC(=O)NC7=O)cc6)CC5)cc4)cc23)ccc1CNC(=O)c1nc(C(C)(C)C)no1 (stereo not drawn) [Example 79, 3-tert-butyl-N-[[4-[6-[4-[[4-[4-[(2,6-dioxo-3-piperidyl)amino]phenyl]-1-piperidyl]methyl]phenyl]pyrrolo[2,1-f][1,2,4]triazin-4-yl]-2-methyl-phenyl]methyl]-1,2,4-oxadiazole-5-carboxamide]
Cc1cc(-c2ncnn3cc(-c4ccc(CN5CCC(c6ccc(NC7CCC(=O)NC7=O)cc6)CC5)cc4)cc23)ccc1CNC(=O)c1nc(C(C)(C)C)co1 (stereo not drawn) [Example 80, 4-tert-butyl-N-[[4-[6-[4-[[4-[4-[(2,6-dioxo-3-piperidyl)amino]phenyl]-1-piperidyl]methyl]phenyl]pyrrolo[2,1-f][1,2,4]triazin-4-yl]-2-methyl-phenyl]methyl]oxazole-2-carboxamide]
Cc1cc(-c2ncnn3cc(-c4ccc(CN5CCC(c6ccc(NC7CCC(=O)NC7=O)cc6)CC5)cc4)cc23)ccc1CNC(=O)CCC(C)(C)C (stereo not drawn) [Example 81, N-[[4-[6-[4-[[4-[4-[(2,6-dioxo-3-piperidyl)amino]phenyl]-1-piperidyl]methyl]phenyl]pyrrolo[2,1-f][1,2,4]triazin-4-yl]-2-methyl-phenyl]methyl]-4,4-dimethyl-pentanamide]
Cc1cc(-c2ncnn3cc(-c4ccc(CN5CCC(c6ccc(NC7CCC(=O)NC7=O)cc6)CC5)cc4)cc23)ccc1CNC(=O)c1cnc(C(C)(C)C)cn1 (stereo not drawn) [Example 82, 5-tert-butyl-N-[[4-[6-[4-[[4-[4-[(2,6-dioxo-3-piperidyl)amino]phenyl]-1-piperidyl]methyl]phenyl]pyrrolo[2,1-f][1,2,4]triazin-4-yl]-2-methyl-phenyl]methyl]pyrazine-2-carboxamide]
Cc1cc(-c2ncnn3cc(-c4ccc(CN5CCC(c6ccc(NC7CCC(=O)NC7=O)cc6)CC5)cc4)cc23)ccc1CNC(=O)c1cc(C(C)(C)C)on1 (stereo not drawn) [Example 83, -tert-butyl-N-[[4-[6-[4-[[4-[4-[(2,6-dioxo-3-piperidyl)amino]phenyl]-1-piperidyl]methyl]phenyl]pyrrolo[2,1-f][1,2,4]triazin-4-yl]-2-methyl-phenyl]methyl]isoxazole-3-carboxamide]
Cc1cc(-c2ncnn3cc(-c4ccc(CN5CCC(c6ccc(NC7CCC(=O)NC7=O)cc6)CC5)cc4)cc23)ccc1CNC(=O)c1ccc(C(C)(C)C)cc1 (stereo not drawn) [Example 84, 4-tert-butyl-N-[[4-[6-[4-[[4-[4-[(2,6-dioxo-3-piperidyl)amino]phenyl]-1-piperidyl]methyl]phenyl]pyrrolo[2,1-f][1,2,4]triazin-4-yl]-2-methyl-phenyl]methyl]benzamide]
Cc1cc(-c2ncnn3cc(-c4ccc(CN5CCC(c6ccc(NC7CCC(=O)NC7=O)cc6)CC5)cc4)cc23)ccc1CNC(=O)c1cnc(C(C)(C)C)o1 (stereo not drawn) [Example 85, 2-tert-butyl-N-[[4-[6-[4-[[4-[4-[(2,6-dioxo-3-piperidyl)amino]phenyl]-1-piperidyl]methyl]phenyl]pyrrolo[2,1-f][1,2,4]triazin-4-yl]-2-methyl-phenyl]methyl]oxazole-5-carboxamide]
Cc1cc(-c2ncnn3cc(-c4ccc(CN5CCC(c6ccc(NC7CCC(=O)NC7=O)cc6)CC5)cc4)cc23)ccc1CNC(=O)c1ncc(C(C)(C)C)o1 (stereo not drawn) [Example 86, 5-tert-butyl-N-[[4-[6-[4-[[4-[4-[(2,6-dioxo-3-piperidyl)amino]phenyl]-1-piperidyl]methyl]phenyl]pyrrolo[2,1-f][1,2,4]triazin-4-yl]-2-methyl-phenyl]methyl]oxazole-2-carboxamide]
Cc1ccc(C(=O)NCc2ccc(-c3ncnn4cc(-c5ccc(CN6CCC(c7ccc(NC8CCC(=O)NC8=O)cc7)CC6)cc5)cc34)cc2C)nc1 (stereo not drawn) [Example 87, N-[[4-[6-[4-[[4-[4-[(2,6-dioxo-3-piperidyl)amino]phenyl]-1-piperidyl]methyl]phenyl]pyrrolo[2,1-f][1,2,4]triazin-4-yl]-2-methyl-phenyl]methyl]-5-methyl-pyridine-2-carboxamide]
Cc1cc(-c2ncnn3cc(-c4ccc(CN5CCC(c6ccc(NC7CCC(=O)NC7=O)cc6)CC5)cc4)cc23)ccc1CNC(=O)c1ccc(C(F)(F)F)cn1 (stereo not drawn) [Example 88, N-[[4-[6-[4-[[4-[4-[(2,6-dioxo-3-piperidyl)amino]phenyl]-1-piperidyl]methyl]phenyl]pyrrolo[2,1-f][1,2,4]triazin-4-yl]-2-methyl-phenyl]methyl]-5-(trifluoromethyl)pyridine-2-carboxamide]
Cc1cc(-c2ncnn3cc(-c4ccc(CN5CCC(c6ccc(NC7CCC(=O)NC7=O)cc6)CC5)cc4)cc23)ccc1CNC(=O)c1ccc(C(C)C)cn1 (stereo not drawn) [Example 89, N-[[4-[6-[4-[[4-[4-[(2,6-dioxo-3-piperidyl)amino]phenyl]-1-piperidyl]methyl]phenyl]pyrrolo[2,1-f][1,2,4]triazin-4-yl]-2-methyl-phenyl]methyl]-5-isopropyl-pyridine-2-carboxamide]
Cc1cc(-c2ncnn3cc(-c4ccc(CN5CCC(c6ccc(NC7CCC(=O)NC7=O)cc6)CC5)cc4)cc23)ccc1CNC(=O)c1cccnc1 (stereo not drawn) [Example 90, N-[[4-[6-[4-[[4-[4-[(2,6-dioxo-3-piperidyl)amino]phenyl]-1-piperidyl]methyl]phenyl]pyrrolo[2,1-f][1,2,4]triazin-4-yl]-2-methyl-phenyl]methyl]pyridine-3-carboxamide]
Cc1cc(-c2ncnn3cc(-c4ccc(CN5CCC(c6ccc(NC7CCC(=O)NC7=O)cc6)CC5)cc4)cc23)ccc1CNC(=O)c1cnc(C(C)C)cn1 (stereo not drawn) [Example 91, N-[[4-[6-[4-[[4-[4-[(2,6-dioxo-3-piperidyl)amino]phenyl]-1-piperidyl]methyl]phenyl]pyrrolo[2,1-f][1,2,4]triazin-4-yl]-2-methyl-phenyl]methyl]-5-isopropyl-pyrazine-2-carboxamide]
Cc1cc(-c2ncnn3cc(-c4ccc(CN5CCC(c6ccc(NC7CCC(=O)NC7=O)cc6)CC5)cc4)cc23)ccc1CNC(=O)c1ccc(C(C)C)nn1 (stereo not drawn) [Example 92, N-[[4-[6-[4-[[4-[4-[(2,6-dioxo-3-piperidyl)amino]phenyl]-1-piperidyl]methyl]phenyl]pyrrolo[2,1-f][1,2,4]triazin-4-yl]-2-methyl-phenyl]methyl]-6-isopropyl-pyridazine-3-carboxamide]
COc1ccc(C(=O)NCc2ccc(-c3ncnn4cc(-c5ccc(CN6CCC(c7ccc(NC8CCC(=O)NC8=O)cc7)CC6)cc5)cc34)cc2C)nc1 (stereo not drawn) [Example 93, N-[[4-[6-[4-[[4-[4-[(2,6-dioxo-3-piperidyl)amino]phenyl]-1-piperidyl]methyl]phenyl]pyrrolo[2,1-f][1,2,4]triazin-4-yl]-2-methyl-phenyl]methyl]-5-methoxy-pyridine-2-carboxamide]
Cc1cc(-c2ncnn3cc(-c4ccc(CN5CCC(c6ccc(NC7CCC(=O)NC7=O)cc6)CC5)cc4)cc23)ccc1CNC(=O)c1ncc(C(C)C)cn1 (stereo not drawn) [Example 94, N-[[4-[6-[4-[[4-[4-[(2,6-dioxo-3-piperidyl)amino]phenyl]-1-piperidyl]methyl]phenyl]pyrrolo[2,1-f][1,2,4]triazin-4-yl]-2-methyl-phenyl]methyl]-5-isopropyl-pyrimidine-2-carboxamide]
Cc1ccc(C(=O)NCc2ccc(-c3ncnn4cc(-c5ccc(CN6CCC(c7ccc(NC8CCC(=O)NC8=O)cc7)CC6)cc5)cc34)cc2C)c(F)c1 (stereo not drawn) [Example 95, N-[[4-[6-[4-[[4-[4-[(2,6-dioxo-3-piperidyl)amino]phenyl]-1-piperidyl]methyl]phenyl]pyrrolo[2,1-f][1,2,4]triazin-4-yl]-2-methyl-phenyl]methyl]-2-fluoro-4-methyl-benzamide]
Cc1cc(-c2ncnn3cc(-c4ccc(CN5CCC(c6ccc(NC7CCC(=O)NC7=O)cc6)CC5)cc4)cc23)ccc1CNC(=O)c1ccc(C(F)F)cn1 (stereo not drawn) [Example 96, 5-(difluoromethyl)-N-[[4-[6-[4-[[4-[4-[(2,6-dioxo-3-piperidyl)amino]phenyl]-1-piperidyl]methyl]phenyl]pyrrolo[2,1-f][1,2,4]triazin-4-yl]-2-methyl-phenyl]methyl]pyridine-2-carboxamide]
Cc1cc(-c2ncnn3cc(-c4ccc(CN5CCC(c6ccc(NC7CCC(=O)NC7=O)cc6)CC5)cc4)cc23)ccc1CNC(=O)N1CC(OC(C)(C)C)C1 (stereo not drawn) [Example 97, 3-tert-butoxy-N-[[4-[6-[4-[[4-[4-[(2,6-dioxo-3-piperidyl)amino]phenyl]-1-piperidyl]methyl]phenyl]pyrrolo[2,1-f][1,2,4]triazin-4-yl]-2-methyl-phenyl]methyl]azetidine-1-carboxamide]
Cc1cc(-c2ncnn3cc(-c4ccc(CN5CCC(c6ccc(NC7CCC(=O)NC7=O)cc6)CC5)cc4)cc23)ccc1CNC(=O)N1CCC(OC(C)(C)C)C1 (stereo not drawn) [Example 98, 3-tert-butoxy-N-[[4-[6-[4-[[4-[4-[(2,6-dioxo-3-piperidyl)amino]phenyl]-1-piperidyl]methyl]phenyl]pyrrolo[2,1-f][1,2,4]triazin-4-yl]-2-methyl-phenyl]methyl]pyrrolidine-1-carboxamide]
CC(C)(C)OC1CN(C(=O)NCc2ccc(-c3ncnn4cc(-c5ccc(CN6CCC(c7ccc(NC8CCC(=O)NC8=O)cc7)CC6)cc5)cc34)cc2F)C1 (stereo not drawn) [Example 99, 3-tert-butoxy-N-[[4-[6-[4-[[4-[4-[(2,6-dioxo-3-piperidyl)amino]phenyl]-1-piperidyl]methyl]phenyl]pyrrolo[2,1-f][1,2,4]triazin-4-yl]-2-fluoro-phenyl]methyl]azetidine-1-carboxamide]
